Assays:
Format in all cases: in vivo
[1] = system: soybean; experiment: Test Example 5: effect on crop by foliage application, plastic box (symbol d); conditions: 320 g/ha, 3 weeks after application
Procedure, shortened: (§1)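 Seeds were sown in spots in sterilized diluvial soil held in a plastic box 21 cm × 13 cm × 7 cm deep, covered with about 1.5 cm of soil, and grown in a greenhouse at 25° C. to 30° C.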

[2] = system: Setaria viridis; experiment: Test Example 5: herbicidal effect by foliage application, plastic box (symbol G); conditions: 320 g/ha, 3 weeks after application
Procedure, shortened: (§2)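 Effect is rated 3 weeks after a foliar spray of water-diluted emulsion concentrate at a predetermined herbicide amount. Plants had grown 14 days in a 25° C. to 30° C. greenhouse from seed in sterilized diluvial soil.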

[3] = system: Monochoria vaginalis; experiment: Test Example 2: herbicidal activity, application during weed generation in submerged conditions (symbol C); conditions: Table 23; application herbicide amount 320 g/ha; grade 0-5 by criteria of Test Example 1
Procedure, shortened: (§3)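 Alluvial soil in pots was flooded to a 4 cm water depth and sown with a mix of the three weed species, then grown in a greenhouse at 25° C. to 30° C. At the one- to two-leaf stage, an emulsifiable formulation diluted in water to a set dose was applied to the water surface. Effects were scored visually 3 weeks later.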

[4] = system: Monochoria vaginalis; experiment: Test Example 1: herbicidal activity, application before weed generation in submerged conditions (symbol C); conditions: application herbicide amount 320 g/ha
Procedure, shortened: (§4)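 Weeds are sown into submerged alluvial soil alongside transplanted 2.5-leaf rice, and the compound, as an emulsion diluted to a set rate, is applied onto the water before emergence. Rating on the 0–5 herbicidal-ratio scale follows 3 weeks of greenhouse growth at 25–30 °C.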

[5] = system: rice plant; experiment: Test Example 5: effect on crop by foliage application, plastic box (symbol b); conditions: 320 g/ha, 3 weeks after application
Procedure, shortened: as §1

[6] = system: Echinochloa oryzacola Vasing.; experiment: Test Example 1: herbicidal activity, application before weed generation in submerged conditions (symbol A); conditions: application herbicide amount 320 g/ha
Procedure, shortened: as §4

[7] = system: Scirpus juncoides; experiment: Test Example 1: herbicidal activity, application before weed generation in submerged conditions (symbol B); conditions: application herbicide amount 320 g/ha
Procedure, shortened: as §4

[8] = system: Echinochloa crus-galli var. crus-galli; experiment: Test Example 5: herbicidal effect by foliage application, plastic box (symbol H); conditions: 320 g/ha, 3 weeks after application
Procedure, shortened: as §2

[9] = system: Chenopodium album; experiment: Test Example 5: herbicidal effect by foliage application, plastic box (symbol O); conditions: 320 g/ha, 3 weeks after application
Procedure, shortened: as §2

[10] = system: Cyperus difformis; experiment: Test Example 3: herbicidal effect by foliage application, Wagner pot (symbol E); conditions: application herbicide amount 320 g/ha
Procedure, shortened: (§5)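 Weeds and rice were sown in alluvial soil under 0.1–0.5 cm of standing water and grown for 14 days in a 25–30 °C greenhouse. An emulsion of the compound, diluted in water to a set dose, was sprayed evenly onto the foliage. Effect was scored against fixed criteria 3 weeks after treatment.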

[11] = system: corn; experiment: Test Example 5: effect on crop by foliage application, plastic box (symbol c); conditions: 320 g/ha, 3 weeks after application
Procedure, shortened: as §1

[12] = system: Scirpus juncoides; experiment: Test Example 2: herbicidal activity, application during weed generation in submerged conditions (symbol B); conditions: Table 23; application herbicide amount 320 g/ha; grade 0-5 by criteria of Test Example 1
Procedure, shortened: as §3

[13] = system: Echinochloa oryzacola Vasing.; experiment: Test Example 2: herbicidal activity, application during weed generation in submerged conditions (symbol A); conditions: Table 23; application herbicide amount 320 g/ha; grade 0-5 by criteria of Test Example 1
Procedure, shortened: as §3

[14] = system: Abutilon theophrasti; experiment: Test Example 5: herbicidal effect by foliage application, plastic box (symbol M); conditions: 320 g/ha, 3 weeks after application
Procedure, shortened: as §2

[15] = system: beet; experiment: Test Example 5: effect on crop by foliage application, plastic box (symbol f); conditions: 320 g/ha, 3 weeks after application
Procedure, shortened: as §1

[16] = system: directly sowed rice plant; experiment: Test Example 3: effect on crop by foliage application, Wagner pot (symbol b); conditions: application herbicide amount 320 g/ha
Procedure, shortened: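 Plants are raised from seed in flooded paddy conditions: water stands 0.1–0.5 cm over alluvial soil, and the pot is kept in a greenhouse at 25–30 °C. Species sown are barnyardgrass (E. crus-galli var. crus-galli), Leptochloa chinensis, Cyperus difformis and rice.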

[17] = system: transplanted rice plant; experiment: Test Example 1: effect on crop, application before weed generation in submerged conditions (symbol a); conditions: application herbicide amount 320 g/ha
Procedure, shortened: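 Alluvial soil pots flooded to 4 cm water, sown with Echinochloa oryzacola, Scirpus juncoides and Monochoria vaginalis, then transplanted with 2.5 leaf stage rice seedlings; pre-emergence application. Greenhouse 25° C. to 30° C.; scored 0–5 by herbicidal ratio 3 weeks after application.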

[18] = system: Digitaria ciliaris; experiment: Test Example 5: herbicidal effect by foliage application, plastic box (symbol F); conditions: 320 g/ha, 3 weeks after application
Procedure, shortened: as §2

[19] = system: rapeseed; experiment: Test Example 5: effect on crop by foliage application, plastic box (symbol g); conditions: 320 g/ha, 3 weeks after application
Procedure, shortened: as §1

[20] = system: Veronica persica; experiment: Test Example 5: herbicidal effect by foliage application, plastic box (symbol R); conditions: 320 g/ha, 3 weeks after application
Procedure, shortened: as §2

[21] = system: Leptochloa chinensis; experiment: Test Example 3: herbicidal effect by foliage application, Wagner pot (symbol D); conditions: application herbicide amount 320 g/ha
Procedure, shortened: as §5

[22] = system: Echinochloa crus-galli var. crus-galli; experiment: Test Example 3: herbicidal effect by foliage application, Wagner pot (symbol H); conditions: application herbicide amount 320 g/ha
Procedure, shortened: as §5

[23] = system: Apera spica-venti; experiment: Test Example 5: herbicidal effect by foliage application, plastic box (symbol L); conditions: 320 g/ha, 3 weeks after application
Procedure, shortened: as §2

[24] = system: Stellaria media; experiment: Test Example 5: herbicidal effect by foliage application, plastic box (symbol P); conditions: 320 g/ha, 3 weeks after application
Procedure, shortened: as §2

[25] = system: Galium spurium; experiment: Test Example 5: herbicidal effect by foliage application, plastic box (symbol Q); conditions: 320 g/ha, 3 weeks after application
Procedure, shortened: as §2

[26] = system: Alopecurus myosuroides; experiment: Test Example 5: herbicidal effect by foliage application, plastic box (symbol J); conditions: 320 g/ha, 3 weeks after application
Procedure, shortened: as §2

[27] = system: Avena fatua; experiment: Test Example 5: herbicidal effect by foliage application, plastic box (symbol I); conditions: 320 g/ha, 3 weeks after application
Procedure, shortened: as §2

[28] = system: Lolium multiflorum Lam.; experiment: Test Example 5: herbicidal effect by foliage application, plastic box (symbol K); conditions: 320 g/ha, 3 weeks after application
Procedure, shortened: as §2

[29] = system: wheat; experiment: Test Example 5: effect on crop by foliage application, plastic box (symbol e); conditions: 320 g/ha, 3 weeks after application
Procedure, shortened: as §1

[30] = system: Amaranthus retroflexus; experiment: Test Example 5: herbicidal effect by foliage application, plastic box (symbol N); conditions: 320 g/ha, 3 weeks after application
Procedure, shortened: as §2

Q: What does the source list for `COCCON=C(CC1CC(O)=C(c2c(C)cc(Br)cc2C)C1=O)C(C)C` (stereo not drawn) [9-018]?
A: d: soybean, effect on crop grade [1]: 0 (Herbicidal ratio of 5% or lower (almost no effect)); G: Setaria viridis, herbicidal effect grade [2]: 3 (Herbicidal ratio of 40% or higher and lower than 70%); Herbicidal effect grade, C: Monochoria vaginalis [3]: 0 (Herbicidal ratio of 5% or lower (almost no effect)); C (Monochoria vaginalis) herbicidal effect grade [4]: 0 (Herbicidal ratio of 5% or lower (almost no effect)); b: directly sowed rice plant, effect on crop grade [5]: 3 (Herbicidal ratio of 40% or higher and lower than 70%); A (Echinochloa oryzacola Vasing.) herbicidal effect grade [6]: 1 (Herbicidal ratio of 5% or higher and lower than 20%); B (Scirpus juncoides) herbicidal effect grade [7]: 0 (Herbicidal ratio of 5% or lower (almost no effect)); H: Echinochloa crus-galli var. crus-galli, herbicidal effect grade [8]: 3 (Herbicidal ratio of 40% or higher and lower than 70%); O: Chenopodium album, herbicidal effect grade [9]: 0 (Herbicidal ratio of 5% or lower (almost no effect)); E herbicidal effect grade ([10]; Table 24): 0 (Herbicidal ratio of 5% or lower (almost no effect)); c: corn, effect on crop grade [11]: 3 (Herbicidal ratio of 40% or higher and lower than 70%); Herbicidal effect grade, B: Scirpus juncoides [12]: 0 (Herbicidal ratio of 5% or lower (almost no effect)); Herbicidal effect grade, A: Echinochloa oryzacola Vasing. [13]: 1 (Herbicidal ratio of 5% or higher and lower than 20%); M: Abutilon theophrasti, herbicidal effect grade [14]: 0 (Herbicidal ratio of 5% or lower (almost no effect)); f: beet, effect on crop grade [15]: 0 (Herbicidal ratio of 5% or lower (almost no effect)); b (directly sowed rice plant) effect on crop grade ([16]; Table 24): 4 (Herbicidal ratio of 70% or higher and lower than 90%); a (transplanted rice plant) effect on crop grade [17]: 2 (Herbicidal ratio of 20% or higher and lower than 40%); F: Digitaria ciliaris, herbicidal effect grade [18]: 0 (Herbicidal ratio of 5% or lower (almost no effect)); g: rapeseed, effect on crop grade [19]: 0 (Herbicidal ratio of 5% or lower (almost no effect)); R: Veronica persica, herbicidal effect grade [20]: 0 (Herbicidal ratio of 5% or lower (almost no effect)); D (Leptochloa chinensis) herbicidal effect grade ([21]; Table 24): 0 (Herbicidal ratio of 5% or lower (almost no effect)); H (Echinochloa crus-galli var. crus-galli) herbicidal effect grade ([22]; Table 24): 2 (Herbicidal ratio of 20% or higher and lower than 40%); L: Apera spica-venti, herbicidal effect grade [23]: 0 (Herbicidal ratio of 5% or lower (almost no effect)); P: Stellaria media, herbicidal effect grade [24]: 1 (Herbicidal ratio of 5% or higher and lower than 20%); Q: Galium spurium, herbicidal effect grade [25]: 0 (Herbicidal ratio of 5% or lower (almost no effect)); J: Alopecurus myosuroides, herbicidal effect grade [26]: 1 (Herbicidal ratio of 5% or higher and lower than 20%); I: Avena fatua, herbicidal effect grade [27]: 3 (Herbicidal ratio of 40% or higher and lower than 70%); K: Lolium multiflorum Lam., herbicidal effect grade [28]: 1 (Herbicidal ratio of 5% or higher and lower than 20%); e: wheat, effect on crop grade [29]: 0 (Herbicidal ratio of 5% or lower (almost no effect)); N: Amaranthus retroflexus, herbicidal effect grade [30]: 0 (Herbicidal ratio of 5% or lower (almost no effect))

Q: What does the source list for `CON=C(C)CC1CC(OC(=O)N2CCOCC2)=C(c2c(C)cc(-c3ccc(Cl)cc3Cl)cc2C)C1=O` (stereo not drawn) [6-090]?
A: d: soybean, effect on crop (criteria of Test Example 1) [1]: 0 (Herbicidal ratio of 5% or lower (almost no effect)); G: Setaria viridis, herbicidal effect (criteria of Test Example 1) [2]: 5 (Herbicidal ratio of 90% or more (almost completely withered)); Herbicidal effect grade, C: Monochoria vaginalis [3]: 0 (Herbicidal ratio of 5% or lower (almost no effect)); Herbicidal effect grade, C: Monochoria vaginalis [4]: 0 (Herbicidal ratio of 5% or lower (almost no effect)); b: directly sowed rice plant, effect on crop (criteria of Test Example 1) [5]: 1 (Herbicidal ratio of 5% or higher and lower than 20%); Herbicidal effect grade, A: Echinochloa oryzacola Vasing. [6]: 5 (Herbicidal ratio of 90% or more (almost completely withered)); Herbicidal effect grade, B: Scirpus juncoides [7]: 0 (Herbicidal ratio of 5% or lower (almost no effect)); H: Echinochloa crus-galli var. crus-galli, herbicidal effect (criteria of Test Example 1) [8]: 4 (Herbicidal ratio of 70% or higher and lower than 90%); O: Chenopodium album, herbicidal effect (criteria of Test Example 1) [9]: 0 (Herbicidal ratio of 5% or lower (almost no effect)); herbicidal effect on E, grade 0-5 [10]: 0 (Herbicidal ratio of 5% or lower (almost no effect)); c: corn, effect on crop (criteria of Test Example 1) [11]: 2 (Herbicidal ratio of 20% or higher and lower than 40%); Herbicidal effect grade, B: Scirpus juncoides [12]: 0 (Herbicidal ratio of 5% or lower (almost no effect)); Herbicidal effect grade, A: Echinochloa oryzacola Vasing. [13]: 3 (Herbicidal ratio of 40% or higher and lower than 70%); M: Abutilon theophrasti, herbicidal effect (criteria of Test Example 1) [14]: 0 (Herbicidal ratio of 5% or lower (almost no effect)); f: beet, effect on crop (criteria of Test Example 1) [15]: 0 (Herbicidal ratio of 5% or lower (almost no effect)); effect on crop b (directly sowed rice plant), grade 0-5 [16]: 0 (Herbicidal ratio of 5% or lower (almost no effect)); Effect grade on crop, a: transplanted rice plant [17]: 0 (Herbicidal ratio of 5% or lower (almost no effect)); F: Digitaria ciliaris, herbicidal effect (criteria of Test Example 1) [18]: 5 (Herbicidal ratio of 90% or more (almost completely withered)); g: rapeseed, effect on crop (criteria of Test Example 1) [19]: 4 (Herbicidal ratio of 70% or higher and lower than 90%); R: Veronica persica, herbicidal effect (criteria of Test Example 1) [20]: 0 (Herbicidal ratio of 5% or lower (almost no effect)); herbicidal effect on D (Leptochloa chinensis), grade 0-5 [21]: 5 (Herbicidal ratio of 90% or more (almost completely withered)); herbicidal effect on H (Echinochloa crus-galli var. crus-galli), grade 0-5 [22]: 0 (Herbicidal ratio of 5% or lower (almost no effect)); L: Apera spica-venti, herbicidal effect (criteria of Test Example 1) [23]: 2 (Herbicidal ratio of 20% or higher and lower than 40%); P: Stellaria media, herbicidal effect (criteria of Test Example 1) [24]: 0 (Herbicidal ratio of 5% or lower (almost no effect)); Q: Galium spurium, herbicidal effect (criteria of Test Example 1) [25]: 0 (Herbicidal ratio of 5% or lower (almost no effect)); J: Alopecurus myosuroides, herbicidal effect (criteria of Test Example 1) [26]: 3 (Herbicidal ratio of 40% or higher and lower than 70%); I: Avena fatua, herbicidal effect (criteria of Test Example 1) [27]: 4 (Herbicidal ratio of 70% or higher and lower than 90%); K: Lolium multiflorum Lam., herbicidal effect (criteria of Test Example 1) [28]: 4 (Herbicidal ratio of 70% or higher and lower than 90%); e: wheat, effect on crop (criteria of Test Example 1) [29]: 0 (Herbicidal ratio of 5% or lower (almost no effect)); N: Amaranthus retroflexus, herbicidal effect (criteria of Test Example 1) [30]: 0 (Herbicidal ratio of 5% or lower (almost no effect))
